We go through two molecules from patent US20080003590A1, “Termination of Binding Parameters” (priority 2004, published 2008).

The structures appear in SMILES notation. pKd: −log10 of the molar value.

In data set [1] the target is human serum albumin (HSA) (Homo sapiens, UniProt P02768). Put plainly: biochemical.
Method: 5. Immobilization of Human Serum Albumin (HSA) on Fluorescence-Active Supports (FI-HSA)
For the immobilization of HSA, 100 mg of HSA dissolved in 10 ml of phosphate buffer (20 mM, pH 7.4) are added to 1 g of a support prepared according to 2. and rotated overhead for at least four hours. To remove free protein, this is washed with phosphate buffer, 1M NaCl in phosphate buffer and finally with PBS. The quantification of the protein immobilization is effected by supernatant analysis. The suspension is adjusted to a desired protein concentration in PBS and stored.
For the determination of the albumin binding, 200 mg of the FI-HSA support prepared in 5. were made up to a total volume of 1 ml with PBS, and similarly 200 mg of an FI-Ref prepared according to 3. were made up to 1 ml with PBS.
For the determination of the concentration-dependent quantities, the following volumes were pipetted into the wells of a 384 well UV plate (Greiner UV-plate): […]
whereby the final concentration of carbamazepine in the wells is 70 μM. […] For the determination of the concentration-dependent quantity cpre-binding, excitation spectra of the wells reference 1 and substance 1 are recorded in the “top-read” mode between 250 and 480 nm with an emission wavelength of 530 nm, and calculated from cpre-binding=log F0v(λ)/Fv(λ), where F0v(λ) and Fv(λ) are the excitation spectra of the wells reference 1 and substance 1. […]
A short description of data set [2]: Determination of the membrane affinity of warfarin in the 96-well format (FI-EiPC support, internal filter effect). The settings on record: triple determination, 70 μM warfarin, FI-EiPC support in PBS. The data set is classed as physicochemical. How it is done:
4. Reconstitution of Lipid Membranes on Fluorescence-Active Supports (FI-EiPC)
For the reconstitution of lipid membranes, firstly 1 g of a support prepared according to 2. is treated with a solution of 25 mg of sodium polystyrenesulfonate in 25 ml of water in the overhead rotator and then washed three times each with water and PBS.
60 ml of a vesicle solution of 5 mg/ml EiPC (lipid extract from egg yolk) in PBS (prepared by homogenization in the Avestin Co EmulsiFlex-C5 homogenizer) are added to this support and incubated overnight. To remove excess lipid, this is washed three times with PBS and the support is then stored in PBS. The determination of the lipid concentration is effected by drying of defined volumes of suspension, detachment of the lipid from the solid body using an organic solvent, and then HPLC analysis.
Well reference 1: 100 μl FI-Ref suspension+200 μl PBS
Well substance 1: 100 μl FI-Ref suspension+170 μl PBS+30 μl warfarin solution;
Well reference 1′: 100 μl FI-EiPC suspension+200 μl PBS
Well substance 1′: 100 μl FI-EiPC suspension+170 μl PBS+30 μl warfarin solution; whereby the final concentration of warfarin in the wells is 70 μM. […]

human serum albumin (HSA), sequence (P02768 25-609): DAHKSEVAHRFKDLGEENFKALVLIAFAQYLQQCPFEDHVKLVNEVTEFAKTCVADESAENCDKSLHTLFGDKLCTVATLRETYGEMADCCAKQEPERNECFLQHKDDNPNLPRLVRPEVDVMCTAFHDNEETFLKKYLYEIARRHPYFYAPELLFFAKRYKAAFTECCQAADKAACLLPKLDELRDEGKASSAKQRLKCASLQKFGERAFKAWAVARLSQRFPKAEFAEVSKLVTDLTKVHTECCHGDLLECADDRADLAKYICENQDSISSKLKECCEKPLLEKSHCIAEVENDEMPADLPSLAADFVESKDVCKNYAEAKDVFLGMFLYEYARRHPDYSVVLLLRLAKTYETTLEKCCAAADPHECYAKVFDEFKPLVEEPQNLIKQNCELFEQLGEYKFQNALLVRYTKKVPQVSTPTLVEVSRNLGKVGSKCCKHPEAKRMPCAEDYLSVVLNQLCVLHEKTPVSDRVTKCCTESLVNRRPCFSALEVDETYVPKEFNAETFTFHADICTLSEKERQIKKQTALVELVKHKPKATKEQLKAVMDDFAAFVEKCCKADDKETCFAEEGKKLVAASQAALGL

In data set [1], `NC(=O)N1c2ccccc2C=Cc2ccccc21` [carbamazepine] showed a pKd of 3.77.

In the case of `CC(=O)CC(c1ccccc1)c1c(O)c2ccccc2oc1=O` (centres unmarked) [warfarin], in data set [2], the membrane affinity came to 1.7±0.3.

Broadly, the pKd is −log10 of the Kd, conventionally taken in molar units. Lower therefore signals a large Kd.
